Measurements published in paper PMC7570844, “Skin Damages—Structure Activity Relationship of Benzimidazole Derivatives Bearing a 5-Membered Ring System” (Molecules, 2020).
Converted amounts (≈) assume the structure as drawn. “And” between values parts separate entries of the source, which are not always exact repeats. Identical values can stand only once. Like-named read-outs stand apart in the source and are kept apart here.

Columns and labels:
Microsporum gypseum = experiment: Antidermatophyte plaque growth inhibition; format: cell-based; conditions: Nannizzia gypsea; for inhibition at 100 µg/mL: read-out: Percent growth inhibition
Microsporum canis = experiment: Antidermatophyte plaque growth inhibition; format: cell-based; conditions: for inhibition at 100 µg/mL: read-out: Percent growth inhibition
[1] = system: Trichophyton mentagrophytes; experiment: Antidermatophyte plaque growth inhibition; format: cell-based; conditions: for inhibition at 100 µg/mL: read-out: Percent growth inhibition
Trichophyton tonsurans = experiment: Antidermatophyte plaque growth inhibition; format: cell-based; conditions: for inhibition at 100 µg/mL: read-out: Percent growth inhibition
Epidermophyton floccosum = experiment: Antidermatophyte plaque growth inhibition; format: cell-based; conditions: for inhibition at 100 µg/mL: read-out: Percent growth inhibition
[2] = system: M. gypseum, M. canis, T. mentagrophytes, T. tonsurans and E. floccosum; experiment: Antidermatophyte activity, all five dermatophytes taken together; format: cell-based; conditions: for inhibition at 100 µg/mL: read-out: Percentage of growth inhibition over the five dermatophytes
[3] = system: herpes simplex virus-1 (KOS); experiment: Antiviral activity in HEL cell cultures (CPE, MTS); format: cell-based; conditions: Human alphaherpesvirus 1, HEL cells
[4] = system: herpes simplex virus-2 (G); experiment: Antiviral activity in HEL cell cultures (CPE, MTS); format: cell-based; conditions: Human alphaherpesvirus 2; Herpes simplex virus-2, HEL cells
[5] = system: herpes simplex virus-1 TK-KOS ACVr; experiment: microbe, parasite or virus in culture; format: cell-based; conditions: Human alphaherpesvirus 1, HEL, read-out: Antiviral EC50
vaccinia virus = experiment: microbe, parasite or virus in culture; format: cell-based; conditions: Orthopoxvirus vaccinia, HEL, read-out: Antiviral EC50
Adeno virus-2 = experiment: Antiviral activity in HEL cell cultures (CPE, MTS); format: cell-based; conditions: Adeno virus-2, HEL cells
Human Coronavirus (229E) = experiment: microbe, parasite or virus in culture; format: cell-based; conditions: HEL, read-out: Antiviral EC50
[6] = system: vesicular stomatitis virus; experiment: microbe, parasite or virus in culture; format: cell-based; conditions: HeLa, read-out: Antiviral EC50
Coxsackie virus B4 = experiment: Antiviral activity in HeLa cell cultures (CPE, MTS); format: cell-based; conditions: Enterovirus B; Coxsackie virus B4, HeLa cells
[7] = system: Respiratory syncytial virus; experiment: microbe, parasite or virus in culture; format: cell-based; conditions: human respiratory syncytial virus, HeLa cells, read-out: Antiviral EC50
[8] = system: human embryonic lung (HEL) cell cultures
HeLa cell cultures = conditions: human
[9] = DPPH radical scavenging test; conditions: mean ± SEM; for DPPH (% Inhibition): tested at 1 mg/mL
[10] = system: human T-lymphocyte cells (CEM); experiment: Cell proliferation inhibition
[11] = system: human cervical carcinoma cells (HeLa); experiment: Cell proliferation inhibition
[12] = system: human pancreatic carcinoma cells (Mia Paca-2); experiment: Cell proliferation inhibition
[13] = system: human melanoma cells (SK-Mel 5); experiment: Cell proliferation inhibition
[14] = Ferric reducing antioxidant power (FRAP) test; conditions: mean ± SEM
[15] = system: Candida albicans (ATCC 10231); experiment: Anti-Candida albicans broth microdilution MIC; conditions: Candida albicans, ATCC10231, 24 h
[16] = system: HEK293T (Normal Kidney Epithelial Cells); experiment: Cell proliferation inhibition, non-cancer control cells; conditions: Homo sapiens, HEK-293T
[17] = UV filtering parameters of compounds in solution (MeOH, 290-400 nm)
[18] = UV filtering parameters of cosmetic formulation on PMMA plates (modified Diffey-Robson); format: physicochemical
[19] = Photostability of formulations, solar simulator; conditions: formulation on PMMA plates
[20] = M. gypseum, 100 µg/mL, '+' has no key
[21] = M. canis, 100 µg/mL, '+' has no key
[22] = T. mentagrophytes, 100 µg/mL, '+' has no key
[23] = T. tonsurans, 100 µg/mL, '+' has no key
[24] = E. floccosum, 100 µg/mL, '+' has no key
[25] = 100 µg/mL, all five dermatophytes
[26] = after solar simulator irradiation

`O=S(=O)(O)c1ccc2[nH]c(-c3ccc[nH]3)nc2c1` [Compound 7, 2-(1H-pyrrol-2-yl)-1H-benzimidazole-5-sulfonic Acid] showed an inhibition at 100 µg/mL (Microsporum gypseum; [20]) of 73 ± 3.67%, an inhibition at 100 µg/mL (Microsporum canis; [21]) of 72.1 ± 7.51% and an inhibition at 100 µg/mL [1, 22] of 69 ± 1.84%. It also gave an inhibition at 100 µg/mL (Trichophyton tonsurans; [23]) of 56.6 ± 4.04%, an inhibition at 100 µg/mL (Epidermophyton floccosum; [24]) of 52.5 ± 6.58% and an inhibition at 100 µg/mL [2, 25] of 50 to 79%. For the same compound, the EC50 [3] was greater than 100 µM, the EC50 [4] was greater than 100 µM and the EC50 [5] was greater than 100 µM. The EC50 (vaccinia virus) was greater than 100 µM, the EC50 (Adeno virus-2) was greater than 100 µM and the EC50 (Human Coronavirus (229E)) was greater than 100 µM. It also gave an EC50 [6] greater than 100 µM, an EC50 (Coxsackie virus B4) greater than 100 µM and an EC50 [7] greater than 100 µM. For the same compound, the melting point was greater than 250 °C, the Cytotoxic concentration [8] was greater than 100 µM and the Cytotoxic concentration (HeLa cell cultures) was greater than 100 µM. The “DPPH IC50” value [9] was 1093.09 ± 8.65 µg/mL, the IC50 [10] was 31 ± 21 µM and the IC50 [11] was greater than 100 µM. The IC50 [12] was 28 ± 10 µM, the IC50 [13] was greater than 100 µM and the FRAP [14] was 239.91 ± 1.79 µmolTE/g. The MIC [15] was 64 µg/mL (≈ 243 µM), the IC50 [16] was 67 ± 47 µM and the SPF [17] was 5.43±0.39. The UVA/UVB [17] was 0.2, the UVAPF [17] was 1.22±0.03 and the “λc (critical wavelength)” value [17] was 345 nm.
`O=S(=O)(O)c1ccc2[nH]c(-c3cccs3)nc2c1` [Compound 9, 2-(thiophen-2-yl)-1H-benzimidazole-5-sulfonic Acid] showed an inhibition at 100 µg/mL (Microsporum gypseum; [20]) of 59.8 ± 6.12%, an inhibition at 100 µg/mL (Microsporum canis; [21]) of 65.9 ± 3.21% and an inhibition at 100 µg/mL [1, 22] of 57.3 ± 1.09%. For the same compound, the inhibition at 100 µg/mL (Trichophyton tonsurans; [23]) was 50.8 ± 2.11%, the inhibition at 100 µg/mL (Epidermophyton floccosum; [24]) was 50 ± 3.26% and the inhibition at 100 µg/mL [2, 25] was 50 to 79%. The EC50 [3] was greater than 100 µM, the EC50 [4] was greater than 100 µM and the EC50 [5] was greater than 100 µM. It also gave an EC50 (vaccinia virus) greater than 100 µM, an EC50 (Adeno virus-2) greater than 100 µM and an EC50 (Human Coronavirus (229E)) greater than 100 µM. The EC50 [6] was greater than 100 µM, the EC50 (Coxsackie virus B4) was greater than 100 µM and the EC50 [7] was greater than 100 µM. For the same compound, the melting point was greater than 250 °C, the Cytotoxic concentration [8] was greater than 100 µM and the Cytotoxic concentration (HeLa cell cultures) was greater than 100 µM. The “DPPH (% Inhibition)” value [9] was 12.52 ± 0.88%, the IC50 [10] was 34 ± 2 µM and the IC50 [11] was greater than 100 µM. The IC50 [12] was 43 ± 14 µM, the IC50 [13] was greater than 100 µM and the FRAP [14] was 82.16 ± 0.22 µmolTE/g. The MIC [15] was 64 µg/mL (≈ 228 µM), the IC50 [16] was greater than 100 µM and the SPF [17] was 4.72±0.17. The UVA/UVB [17] was 0.48, the UVAPF [17] was 1.43±0.09 and the “λc (critical wavelength)” value [17] was 339 nm.
Compound `c1coc(-c2nc3ccccc3[nH]2)c1` [Compound 11, 2-(furan-2-yl)-1H-benzimidazole] has an SPF ([18]; 1% in formulation) of 6.84, a UVA/UVB ([18]; 1% in formulation) of 0.69 and a UVAPF ([18]; 1% in formulation) of 1.94. It also gave a λc ([18]; 1% in formulation) of 368 nm, an SPF ([18]; 2% in formulation) of 10.39 and a UVA/UVB ([18]; 2% in formulation) of 0.13. It also gave a UVAPF ([18]; 2% in formulation) of 1.53, a λc ([18]; 2% in formulation) of 366 nm and an SPF ([18]; 3% in formulation) of 11.15. The UVA/UVB ([18]; 3% in formulation) was 0.18, the UVAPF ([18]; 3% in formulation) was 1.82 and the λc ([18]; 3% in formulation) was 371 nm. The IC50 (Microsporum gypseum) was 1.54 ± 0.02 µg/mL (≈ 8.36 µM), the inhibition at 100 µg/mL (Microsporum gypseum) was 99 ± 0.28% and the IC50 (Microsporum canis) was 1.58 ± 0.06 µg/mL (≈ 8.58 µM). It also gave an inhibition at 100 µg/mL (Microsporum canis) of 98.3 ± 2.03%, an IC50 [1] of 1.61 ± 0.1 µg/mL (≈ 8.74 µM) and an inhibition at 100 µg/mL [1] of 97.2 ± 4.53%. For the same compound, the IC50 (Trichophyton tonsurans) was 1.89 ± 0.22 µg/mL (≈ 10.3 µM), the inhibition at 100 µg/mL (Trichophyton tonsurans) was 94.7 ± 5.63% and the IC50 (Epidermophyton floccosum) was 2.44 ± 0.05 µg/mL (≈ 13.2 µM). The inhibition at 100 µg/mL (Epidermophyton floccosum) was 97.9 ± 4.23%, the “Activity on dermatophytes (in words)” value ([2]; 100 µg/mL) was “fungicide activity” and the IC50 ([2]; read-out: IC50 range over the five dermatophytes) was 0.97 to 3.8 µg/mL (≈ 5.27 to 20.6 µM). The inhibition at 100 µg/mL [2] was roughly 100%, the EC50 [3] was greater than 100 µM and the EC50 [4] was greater than 100 µM. For the same compound, the EC50 [5] was greater than 100 µM, the EC50 (vaccinia virus) was greater than 100 µM and the EC50 (Adeno virus-2) was greater than 100 µM. It also gave an EC50 (Human Coronavirus (229E)) greater than 100 µM, an EC50 [6] greater than 100 µM and an EC50 (Coxsackie virus B4) greater than 100 µM. The EC50 [7] was greater than 100 µM, the Cytotoxic concentration [8] was greater than 100 µM and the Cytotoxic concentration (HeLa cell cultures) was greater than 100 µM. The “DPPH (% Inhibition)” value [9] was 15.46 ± 0.98%, the IC50 [10] was greater than 100 µM and the IC50 [11] was greater than 100 µM. For the same compound, the IC50 [12] was greater than 100 µM, the IC50 [13] was greater than 100 µM and the FRAP [14] was 4462.64 µmolTE/g and 4462.64 ± 18.29 µmolTE/g. The “% SPFeff (residual in vitro SPF after irradiation)” value [19, 26] was “less than 80%”, the “% UVA-PFeff (residual UVA-PF after irradiation)” value [19, 26] was “less than 80%” and the “Photostability (in words)” value ([19]; irradiated with solar simulator, photostable if % SPF and % PF-UVA at least 80%) was “photoinstable”. For the same compound, the IC50 [16] was greater than 100 µM, the SPF [17] was 20.06±3.04 and the UVA/UVB [17] was 0.3. For the same compound, the UVAPF [17] was 1.05±0.06 and the “λc (critical wavelength)” value [17] was 333 nm.
